Laboratory results taken from publication PMC5872235 (2018).
Converted amounts (≈) assume the structure as drawn. “And” between values parts separate entries of the source, which are not always exact repeats. Equal entries are not always repeated. Where two headings read alike, the source gives them in different places. Peptide text beside a SMILES is read from it.

Key:
[1] = system: Staphylococcus aureus strains isolated from control group; assay: microbe, parasite or virus in culture; conditions: 18 h
[2] = system: Superantigen negative Staphylococcus aureus (n = 48); assay: microbe, parasite or virus in culture; conditions: 18 h
S. aureus isolates = conditions: cited from earlier work
[3] = system: Staphylococcus aureus strains isolated from atopic dermatitis (AD) patients; assay: microbe, parasite or virus in culture; conditions: 18 h
[4] = system: Superantigen positive Staphylococcus aureus (n = 52); assay: microbe, parasite or virus in culture; conditions: 18 h
[5] = system: Superantigen positive Staphylococcus aureus (n = 52)
[6] = system: S. aureus in patients with atopic dermatitis; format: cell-based, Staphylococcus aureus
[7] = system: Staphylococcus aureus strains isolated from control group
[8] = system: Staphylococcus aureus strains isolated from atopic dermatitis (AD) patients
[9] = system: Superantigen negative Staphylococcus aureus (n = 48)
[10] = system: S. aureus in control group; format: cell-based, Staphylococcus aureus
[11] = Superantigen positive (n = 52, 18 h)
[12] = Superantigen negative (n = 48, 18 h)

Row | Structure (SMILES) | MIC50 [1] [µg/mL] | MIC90 [1] [µg/mL] | MIC50 [2] [µg/mL] | MIC90 [2] [µg/mL] | MIC50 [3] [µg/mL] | MIC90 [3] [µg/mL] | MIC50 [4] [µg/mL] | MIC90 [4] [µg/mL] | MIC50 [5, 11] [µg/mL] | MIC90 [5, 11] [µg/mL] | MIC Range [5, 11] [µg/mL] | MIC50 [9, 12] [µg/mL] | MIC90 [9, 12] [µg/mL] | MIC Range [9, 12] [µg/mL] | also measured
1 | CC[C@H]1OC(=O)[C@H](C)[C@@H](O[C@H]2C[C@@](C)(OC)[C@@H](O)[C@H](C)O2)[C@H](C)[C@@H](O[C@@H]2O[C@H](C)C[C@H](N(C)C)[C@H]2O)[C@](C)(O)C[C@@H](C)C(=O)[C@H](C)[C@@H](O)[C@]1(C)O [Erythromycin, erythromycin] | 1 (≈ 1.36 µM) | > 512 | 0.5 (≈ 0.681 µM) | 256 (≈ 349 µM) | 0.5 (≈ 0.681 µM) | > 512 | 0.5 (≈ 0.681 µM) | > 512 | – | – | – | – | – | – | rate of resistance (S. aureus isolates): 14% and 18%
2 | CN(C)[C@@H]1C(O)=C(C(N)=O)C(=O)[C@@]2(O)C(O)=C3C(=O)c4c(O)cccc4[C@@](C)(O)[C@H]3C[C@@H]12 [Tetracycline, tetracycline] | 0.5 (≈ 1.13 µM) | 32 (≈ 72 µM) | 0.5 (≈ 1.13 µM) | 32 (≈ 72 µM) | 0.5 (≈ 1.13 µM) | 32 (≈ 72 µM) | 0.25 (≈ 0.563 µM) | 32 (≈ 72 µM) | – | – | – | – | – | – | MIC Range [5]: 0.0625 to 32 µg/mL; Resistance (%), resistant strains [6]: 15.5%; MIC Range [7]: 0.125 to 32 µg/mL; MIC Range [8]: 0.125 to 64 µg/mL; MIC Range [9]: 0.0625 to 32 µg/mL
3 | CC(=O)NC[C@H]1CN(c2ccc(N3CCOCC3)c(F)c2)C(=O)O1 [Linezolid, linezolid] | 2 (≈ 5.93 µM) | 4 (≈ 11.9 µM) | 1 (≈ 2.96 µM) | 4 (≈ 11.9 µM) | 1 (≈ 2.96 µM) | 4 (≈ 11.9 µM) | 1 (≈ 2.96 µM) | 2 (≈ 5.93 µM) | – | – | – | – | – | – | MIC Range [5]: 0.5 to 4 µg/mL; Resistance of isolates, in words [6]: none of the isolates were resistant; MIC Range [7]: 1 to 4 µg/mL; MIC Range [8]: 0.25 to 32 µg/mL; Susceptibility of all strains, in words [10]: sensitive; MIC Range [9]: 0.25 to 4 µg/mL
4 | CC[C@H](C)[C@H](NC(=O)[C@@H](NC(=O)[C@H](CO)NC(=O)[C@H](C)NC(=O)[C@@H](NC(=O)[C@H](CCCCN)NC(=O)[C@H](CCCCN)NC(=O)[C@@H](NC(=O)[C@@H](NC(=O)[C@H](CC(=O)O)NC(=O)[C@H](Cc1ccccc1)NC(=O)[C@H](CC(C)C)NC(=O)CN)C(C)C)[C@@H](C)CC)C(C)C)C(C)C)C(=O)NCC(=O)NCC(=O)N[C@@H](CC(C)C)C(N)=O [Citropin 1.1] (H-GLFDVIKKVASVIGGL-NH2) | – | – | – | – | – | – | – | – | 16 (≈ 9.91 µM) | 16 (≈ 9.91 µM) | 1 to 64 | 16 (≈ 9.91 µM) | 32 (≈ 19.8 µM) | 1 to 128 | –
5 | CC[C@H](C)[C@H](NC(=O)[C@H](CCCCN)NC(=O)[C@H](CCC(=O)O)NC(=O)[C@H](CCCCN)NC(=O)[C@H](CO)NC(=O)[C@H](CCCCN)NC(=O)[C@H](CCCNC(=N)N)NC(=O)[C@H](Cc1ccccc1)NC(=O)[C@H](Cc1ccccc1)NC(=O)[C@H](CC(=O)O)NC(=O)CNC(=O)[C@H](CC(C)C)NC(=O)[C@@H](N)CC(C)C)C(=O)NCC(=O)N[C@@H](CCCCN)C(=O)N[C@@H](CCC(=O)O)C(=O)N[C@@H](Cc1ccccc1)C(=O)N[C@@H](CCCCN)C(=O)N[C@@H](CCCNC(=N)N)C(=O)N[C@H](C(=O)N[C@H](C(=O)N[C@@H](CCC(N)=O)C(=O)N[C@@H](CCCNC(=N)N)C(=O)N[C@H](C(=O)N[C@@H](CCCCN)C(=O)N[C@@H](CC(=O)O)C(=O)N[C@@H](Cc1ccccc1)C(=O)N[C@@H](CC(C)C)C(=O)N[C@@H](CCCNC(=N)N)C(=O)N[C@@H](CC(N)=O)C(=O)N[C@@H](CC(C)C)C(=O)N[C@H](C(=O)N1CCC[C@H]1C(=O)N[C@@H](CCCNC(=N)N)C(=O)N[C@H](C(=O)N[C@@H](CCC(=O)O)C(=O)N[C@@H](CO)C(=O)O)[C@@H](C)O)C(C)C)[C@@H](C)CC)C(C)C)[C@@H](C)CC [LL-37] | – | – | – | – | – | – | – | – | 64 (≈ 14.2 µM) | 256 (≈ 57 µM) | – | 128 (≈ 28.5 µM) | > 512 | – | –
6 | CC[C@H](C)[C@H](NC(=O)CNC(=O)[C@H](CO)NC(=O)[C@H](CC(C)C)NC(=O)[C@@H](NC(=O)[C@H](CCCNC(=N)N)NC(=O)CNC(=O)[C@@H](NC(=O)[C@H](CC(C)C)NC(=O)[C@@H]1CCCN1C(=O)[C@H](CC(C)C)NC(=O)[C@@H](N)Cc1ccccc1)[C@@H](C)CC)C(C)C)C(=O)N[C@@H](CC(C)C)C(N)=O [Temporin A] (H-FLPLIGRVLSGIL-NH2) | – | – | – | – | – | – | – | – | 8 (≈ 5.73 µM) | 16 (≈ 11.5 µM) | 2 to 64 | 8 (≈ 5.73 µM) | 32 (≈ 22.9 µM) | 4 to 32 | –
7 | CC[C@H](C)[C@H](NC(=O)[C@H](CCCCN)NC(=O)[C@H](CCCCN)NC(=O)[C@H](Cc1ccccc1)NC(=O)[C@H](CC(C)C)NC(=O)[C@H](CCCCN)NC(=O)[C@H](Cc1c[nH]c2ccccc12)NC(=O)[C@@H](N)CCCCN)C(=O)NCC(=O)N[C@@H](C)C(=O)N[C@H](C(=O)N[C@@H](CC(C)C)C(=O)N[C@@H](CCCCN)C(=O)N[C@H](C(=O)N[C@@H](CC(C)C)C(N)=O)C(C)C)C(C)C [CAMEL] (H-KWKLFKKIGAVLKVL-NH2) | – | – | – | – | – | – | – | – | 4 (≈ 2.26 µM) | 8 (≈ 4.52 µM) | 1 to 8 | 4 (≈ 2.26 µM) | 4 (≈ 2.26 µM) | 2 to 128 | –
